{"source": "patent US20210054334A1", "about": "“DIRECTED DIFFERENTIATION OF ASTROCYTES FROM HUMAN PLURIPOTENT STEM CELLS FOR USE IN DRUG SCREENING AND THE TREATMENT OF AMYOTROPHIC LATERAL SCLEROSIS (ALS)” (Kadimastem Ltd., priority 2013, published 2021)", "origin": "cited, not measured here", "conditions": "ALS"}
{"smiles": "Nc1nc2ccc(OC(F)(F)F)cc2s1", "note": "[Rilutek, Riluzole]", "values": [{"measurement": "extension of lifespan", "result": "only extends lifespan by a maximum of three months"}]}
